Data from US12410163B2, “Compounds as GLP-IR agonists” (Terns Pharmaceuticals, Inc., priority 2022, dated 2025).

Experiments:
human GLP-1R receptor = molecular target: T1, human GLP-1R receptor (Homo sapiens, UniProt P43220); experiment: GLP-1R low expression cell assay (cAMP TR-FRET, CHO-K1_hGLP-1Rlow_clone10); assay type: cell-based; details: CHO-K1_hGLP-1Rlow_clone10 cells, percent activation relative to control GLP-1 peptide
T1 construct: expressed in transfected cells
Procedure: Stable cell lines expressing high and low GLP-1R surface expression are generated in CHO-K1 cells transfected (Fugene 6) with a puromycin selectable DNA plasmid encoding human GLP-1R receptor (accession number: NM_002062.5) under control of an EF1A promoter. Transfected cells are seeded into 24-well plates (9,000 cells/well) containing complete medium and incubated in a humidified incubator at 37° C. with 5% carbon dioxide. After overnight incubation, medium is replaced with complete medium supplemented with puromycin (6 μg/mL) and refreshed every 2-3 days to select for stably transfected cells. Individual pools of selected cells are expanded prior to analysis for responsiveness to GLP-1 control peptide using a TR-FRET assay to detect cAMP (LANCE Ultra cAMP Assay, Perkin Elmer). Briefly, cells are collected in Versene solution, plated in 384-well plates (1,000 cells/well) and combined with serially diluted GLP-1R control peptide (10 nL) using an acoustic dispenser (ECHO). Plates are incubated for 30 minutes at 25° C. prior to the addition of EU-cAMP tracer (5 μL) and Ulight-anti-cAMP (5 μL) reagents to each well, followed by 15 minutes incubation at 25° C. TR-FRET signal is detected using an EnVision Multimode Plate Reader (excitation=320 nm; emission=615 and 655 nm). Dose-response curves are used to generate EC50 values as a measure of responsiveness to the GLP-1R control peptide. Selected cell lines are monitored for responsiveness over multiple passages to ensure stability. […] Briefly, GLP-1R expression is analyzed by flow cytometry using a fluorescein-labeled Exendin-4 peptide fluorescent probe (FLEX). Cells are harvested in Versene solution and washed 3-times with PBS+0.5% BSA before incubation with FLEX reagent (10 μM) for 2 hours at room temperature. After incubation, cells are washed 3-times in PBS+0.5% BSA before final resuspension in PBS prior to analysis by flow cytometry to measure FLEX mean fluorescence intensity (MFI) as a measure of GLP-1R expression on the cell surface.
For compound testing in the CHO-K1_hGLP-1Rlow_clone10 cell lines, cells are seeded in 384-well plates (1,000 cells/well). Test compounds are serially diluted in DMSO (10-point, 3-fold dilution), added to wells using an ECHO dispenser (10 nL/well) and plates are centrifuged for 1 min and agitated for 2 min at room temperature prior to 30-minute incubation at 25° C. After incubation, Eu-cAMP (5 μL) and Ulight-anti-cAMP (5 μL) reagents are added to each well, followed by centrifugation for 1 minute, agitation for 2 minutes at room temperature, and final incubation of the plates at 25° C. for 15 minutes. Plates are read using an EnVision microplate reader (excitation=320 nm; emission=615 and 655 nm). Dose-response curves are generated from duplicate wells based on percent activation calculated relative to a control GLP-1 peptide agonist that was run in parallel. EC50 values are determined by fitting percent activation as a function of compound concentration using the Hill equation (XLfit).
Stable cell lines expressing high and low GLP-1R surface expression were generated in CHO-K1 cells transfected (Fugene 6) with a puromycin selectable DNA plasmid encoding human GLP-1R receptor (accession number: NM_002062.5) under control of an EF1A promoter. Transfected cells were seeded into 24-well plates (9,000 cells/well) containing complete medium and incubated in a humidified incubator at 37° C. with 5% carbon dioxide. After overnight incubation, medium was replaced with complete medium supplemented with puromycin (6 μg/mL) and refreshed every 2-3 days to select for stably transfected cells. Individual pools of selected cells were expanded prior to analysis for responsiveness to GLP-1 control peptide using a TR-FRET assay to detect cAMP (LANCE Ultra cAMP Assay, Perkin Elmer).

[1] = Metabolic stability in hepatocytes; assay type: in vitro ADME; details: cryopreserved human hepatocytes (suspension), 1×10^6 cells/mL, intrinsic clearance, read-out: hHep CLint
Procedure: (§1) Test compounds are incubated in human hepatocytes and stability is assessed from the substrate […] approach. Test compounds are dissolved in dimethyl sulfoxide (DMSO) to create a 10 mM Stock, and then further diluted to create a 1000× Working Stock of 1 mM with DMSO in 96-well plates for test compounds and the positive control (midazolam). Vials containing cryopreserved hepatocytes are removed from the liquid nitrogen tank and immediately immersed in a 37° C. water bath. The vials are shaken gently until the contents had thawed and were then immediately emptied into 48 mL of pre-warmed HT Medium in a 50 mL conical tube. Cells remaining in the vial are resuspended with 1.0 mL of pre-warmed HT Medium and added to the conical tube. The tube is capped and then gently inverted several times to resuspend the hepatocytes. The cell suspension is centrifuged at 50×g at room temperature for 5 minutes and the supernatant discarded. The cell pellet is loosened by gently swirling the centrifuge tube and is re-suspended in 4 mL of warm Dulbecco's Modified Eagle medium (DMEM). Cell density is determined by a cell counter by Nexcelom, and DMEM medium is added to obtain a target density of 1×10^6 cells/mL. The assay is carried out in 96-well microtiter plates. Test Compounds are incubated at 1 μM with 1×10^6 cells/mL hepatocytes in DMEM for 0, 30, 60, 120 and 240 minutes. The incubation is carried out with gentle shaking at 37° C. under a humid atmosphere of 95% air/5% CO2. The volume of the incubation mixture is 37 μL with a final 0.1% DMSO. At each of the time points, the incubation is stopped by adding 150 μL quenching solution (100% acetonitrile, 0.1% formic acid containing bucetin as an internal standard for positive ESI mode). Subsequently, the mixtures are vortexed for 20 min and centrifuged at 4,000 RPM at 10° C. The supernatant (80 μL) is transferred to a clean 96-well plate and analyzed by LC-MS/MS. Midazolam at 1 μM with a final 0.1% DMSO is included as a positive control to verify assay performance. The percent parent remaining, intrinsic and predicted hepatic clearance and t1/2 are calculated. All samples are analyzed by LC-MS/MS using an AB Sciex API 4000 instrument, coupled to a Shimadzu LC-20AD LC Pump system. Separation is achieved using a Waters Atlantis T3 dC18 reverse phase HPLC column (20 mm×2.1 mm) at a flow rate of 0.5 mL/min. The mobile phase consisted of 0.1% formic acid in water (solvent A) and 0.1% formic acid in 100% acetonitrile (solvent B). Elution conditions are detailed below.
(§2) The ion optics of each test compound are optimized for their declustering potential (DP), […] (CE), collision-cell exit potential (CXP) and used in a selected ion monitoring experiment in the positive ion mode. The peak area ratio of each test compound to internal standard is then evaluated for stability. The extent of metabolism is calculated based on the disappearance of the test compound, compared to its initial concentration. The initial rates of clearance of the test compound are calculated using the linear regression plot of semi-log % remaining of the compound versus time. The elimination rate constant (k) of the linear regression plot is then used to determine t1/2 and the intrinsic clearance (CLint) using the following formula, where Chepatocyte (million cells/mL) is the cell density of the incubation: k=−slope t1/2=0.693/k CLint=k/Chepatocyte
(§3) Test compounds were incubated in human hepatocytes and stability was assessed from the substrate […] approach. Test compounds were dissolved in dimethyl sulfoxide (DMSO) to create a 10 mM Stock, and then further diluted to create a 1000× Working Stock of 1 mM with DMSO in 96-well plates for test compounds and the positive control (midazolam). Vials containing cryopreserved hepatocytes were removed from the liquid nitrogen tank and immediately immersed in a 37° C. water bath. […]

human hepatocytes = experiment: Metabolic stability in hepatocytes; assay type: in vitro ADME; details: 1 μM, 1×10^6 cells/mL, 0-240 min
Procedure: as §1, §2, §3

T1 sequence (P43220 24-463): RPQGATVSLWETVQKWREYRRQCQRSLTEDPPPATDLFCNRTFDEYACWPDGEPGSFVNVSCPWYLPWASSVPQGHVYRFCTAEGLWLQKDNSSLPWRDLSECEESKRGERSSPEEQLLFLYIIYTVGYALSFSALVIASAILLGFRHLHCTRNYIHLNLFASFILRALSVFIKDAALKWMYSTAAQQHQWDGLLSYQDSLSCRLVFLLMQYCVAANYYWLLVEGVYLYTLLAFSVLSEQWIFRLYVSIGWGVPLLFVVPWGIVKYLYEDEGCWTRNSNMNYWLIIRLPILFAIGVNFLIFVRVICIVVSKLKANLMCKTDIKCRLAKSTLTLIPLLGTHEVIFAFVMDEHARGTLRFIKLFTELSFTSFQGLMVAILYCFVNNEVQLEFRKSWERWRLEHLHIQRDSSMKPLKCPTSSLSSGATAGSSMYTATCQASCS

Structure (SMILES)	EC50 (human GLP-1R receptor)	CLint scaled at 1 μM [1]	hHep t1/2 (human hepatocytes)
N#Cc1ccc(COc2cccc(N3CCN(Cc4nc5ccc(C(=O)O)cc5n4C[C@@H]4CCO4)[C@H]4CC43)n2)c(F)c1 (single isomer, unassigned) [Compound 42]	50 to 100 nM	5.01 mL/min/kg	> 8 h
N#Cc1ccc(COc2ccnc(N3CCN(Cc4nc5ccc(C(=O)O)cc5n4Cc4cncs4)[C@H]4C[C@H]43)n2)c(F)c1 [Compound 19, 2-((5-(4-((4-Cyano-2-fluorobenzyl)oxy)pyrimidin-2-yl)-2,5-diazabicyclo[4.1.0]heptan-2-yl)methyl)-1-(thiazol-5-ylmethyl)-1H-benzo[d]imidazole-6-carboxylic Acid]	> 100 nM	5.01 mL/min/kg	> 8 h
CCn1nncc1Cn1c(CN2CCN(c3cccc(OCc4ccc(C#N)cc4F)n3)C3C[C@@H]32)nc2ccc(C(=O)O)cc21 (some centres unmarked) [Compound 44, 2-((5-(6-((4-Cyano-2-fluorobenzyl)oxy)pyridin-2-yl)-2,5-diazabicyclo[4.1.0]heptan-2-yl)methyl)-1-((1-ethyl-1H-1,2,3-triazol-5-yl)methyl)-1H-benzo[d]imidazole-6-carboxylic Acid]	–	5.01 mL/min/kg	> 8 h
